tested on: AKT protein phosphorylated on serine 473 (pAKT-S473); assay: Study of pAKT expression in PC3 human prostate carcinoma cells measured by western blotting (Test A); assay type: cell-based; conditions: PC-3, inhibition of AKT phosphorylation (pAKT-S473), 1 to 2 hours incubation, absolute IC50, mean of two experiments
Description: (§1) The inhibitory activity of the molecules on AKT phosphorylation is measured either by western blotting using the technique described below, or by the MSD Multi-spot Biomarker detection technique from Meso Scale Discovery also described below.
Study of pAKT Expression in PC3 Human Prostate Carcinoma Cells Measured by Western Blotting (Test A):
(§2) On day 2, the cells are incubated in the presence or absence of the test products for 1 to 2 hours at 37° C. in the presence of 5% CO2. The molecules, diluted in dimethyl sulphoxide (DMSO Sigma #D2650), are added from a 10-times concentrated stock solution, the final percentage of DMSO being 0.1%. The molecules are tested either at a single concentration of less than or equal to 10 μM, or at increasing concentrations in a range that can extend from less than 1 nM to 10 μM.
After this incubation, the cells are lysed for the preparation of the proteins.
The lysate is centrifuged for 10 min at 6000 rpm. 155 μl of supernatant are recovered. 150 μl are incubated for denaturation for 5 min at 95° C. in the presence of 4× NuPAGE LDS Sample Buffer diluted 4-fold (InVitrogen ref NP0007) and of 10× NuPAGE Sample Reducing Agent diluted 10-fold (InVitrogen ref NP0009). These samples are then frozen at −20° C.
The gel is then transferred on to an Invitrolon PVDF membrane (Invitrogen #LC2007) permeabilised beforehand and for a few seconds in ethanol (Ethanol Fischer Scientific #E/0600DF/15).
The transfer is carried out in a Biorad tank at 30 volts overnight or at 60 volts for 3 hours, in the presence of 20× NUPAGE Transfer Buffer diluted 20-fold (InVitrogen ref NP0006).
The membrane is then saturated in saturating solution composed of TBS (10× Tris Buffered Saline, Sigma #T5912, diluted 10-fold), 0.1% Tween (Sigma #P5927) and 3% BSA (Bovine Albumin Serum Fraction V, Sigma #A4503) for 6 h after overnight transfer or else for 1 h after transfer for a period of 3 h.
Two rinses for min in washing solution composed of TBS and 0.1% Tween 20 are carried out before hybridisation of the secondary antibodies.
The secondary antibodies are diluted 110000th for the rabbit anti-Mouse IgG HRP antibody (W402 Promega) and to 110000th for the goat anti-Rabbit IgG HRP antibody (W401 Promega) in saturating solution, and then shaken for 1 h at ambient temperature.
Two rinses for 30 min in washing solution are carried out and then a rinse for 5 min in H2O is carried out in order to eliminate the remaining Tween 20.
The luminescence is read with the FujiFilm device (Ray Test).
The FUJI device measures the total luminescence signal obtained (AU) for each band selected. It then subtracts the background noise (BG) proportional to the size of the band selected (Area), said background noise being calculated from a specific background noise band, with a view to obtaining the specific signal (AU-BG) for each band. The band obtained in the absence of product and in the presence of 0.1% DMSO is considered to be the 100% signal. The software calculates the % specific activity (Ratio) obtained for each band selected as a function of this 100% signal. The percentage inhibition is calculated for each concentration according to the formula (100%−Ratio).
Two independent experiments make it possible to calculate the mean of the percentages of inhibition obtained at a given concentration for the products tested only at one concentration.
Two independent experiments make it possible to calculate the mean of the IC50s.

Row | SMILES | IC50 [nM]
1 | O=C(Cc1nc(N2CCOCC2)cc(=O)[nH]1)Nc1ccccc1 [Example 1, 2-[4-(morpholin-4-yl)-6-oxo-1,6-dihydropyrimidin-2-yl]-N-phenylacetamide] | 102
2 | O=C(Cc1nc(N2CCOCC2)cc(=O)[nH]1)Nc1ccc(F)cc1 [Example 2, N-(4-fluorophenyl)-2-[4-(morpholin-4-yl)-6-oxo-1,6-dihydropyrimidin-2-yl]acetamide] | 321
3 | O=C(Cc1nc(N2CCOCC2)cc(=O)[nH]1)Nc1cccc(Cl)c1 [Example 3, N-(3-chlorophenyl)-2-[4-(morpholin-4-yl)-6-oxo-1,6-dihydropyrimidin-2-yl]acetamide] | 100
4 | O=C(Cc1nc(N2CCOCC2)cc(=O)[nH]1)Nc1ccc(F)c(F)c1 [Example 6, N-(3,4-difluorophenyl)-2-[4-(morpholin-4-yl)-6-oxo-1,6-dihydropyrimidin-2-yl]acetamide] | 23
5 | COc1cc(NC(=O)Cc2nc(N3CCOCC3)cc(=O)[nH]2)ccc1F [Example 8, N-(4-fluoro-3-methoxyphenyl)-2-[4-(morpholin-4-yl)-6-oxo-1,6-dihydropyrimidin-2-yl]acetamide] | 318
6 | O=C(Cc1nc(N2CCOCC2)cc(=O)[nH]1)Nc1ccccc1F [Example 9, N-(2-fluorophenyl)-2-[4-(morpholin-4-yl)-6-oxo-1,6-dihydropyrimidin-2-yl]acetamide] | 727
7 | Cc1ccccc1NC(=O)Cc1nc(N2CCOCC2)cc(=O)[nH]1 [Example 10, N-(2-methylphenyl)-2-[4-(morpholin-4-yl)-6-oxo-1,6-dihydropyrimidin-2-yl]acetamide] | 3500
8 | COc1ccccc1NC(=O)Cc1nc(N2CCOCC2)cc(=O)[nH]1 [Example 11, N-(2-methoxyphenyl)-2-[4-(morpholin-4-yl)-6-oxo-1,6-dihydropyrimidin-2-yl]acetamide] | 632
9 | O=C(Cc1nc(N2CCOCC2)cc(=O)[nH]1)Nc1ccc(Cl)cc1 [Example 15, N-(4-chlorophenyl)-2-[4-(morpholin-4-yl)-6-oxo-1,6-dihydropyrimidin-2-yl]acetamide] | 1420
10 | COc1cccc(NC(=O)Cc2nc(N3CCOCC3)cc(=O)[nH]2)c1 [Example 16, N-(3-methoxyphenyl)-2-[4-(morpholin-4-yl)-6-oxo-1,6-dihydropyrimidin-2-yl]acetamide] | 850
11 | O=C(Cc1nc(N2CCOCC2)cc(=O)[nH]1)Nc1cccc(C(F)(F)F)c1 [Example 17, 2-[4-(morpholin-4-yl)-6-oxo-1,6-dihydropyrimidin-2-y]-N-[3-(trifluoromethyl)phenyl]acetamide] | 1480
12 | O=C(Cc1nc(N2CCOCC2)cc(=O)[nH]1)Nc1cccc(Br)c1 [Example 18, N-(3-bromophenyl)-2-[4-(morpholin-4-yl)-6-oxo-1,6-dihydropyrimidin-2-yl]acetamide] | 23
13 | COC(=O)c1cccc(NC(=O)Cc2nc(N3CCOCC3)cc(=O)[nH]2)c1 [Example 20, methyl 3-({[4-(morpholin-4-yl)-6-oxo-1,6-dihydropyrimidin-2-yl]acetyl}amino)benzoate] | 1310
14 | O=C(Cc1nc(N2CCOCC2)cc(=O)[nH]1)Nc1cccc(C(=O)O)c1 [Example 21, 3-({[4-(morpholin-4-yl)-6-oxo-1,6-dihydropyrimidin-2-yl]acetyl}amino)benzoic acid] | 10000
15 | CC(C)c1cccc(NC(=O)Cc2nc(N3CCOCC3)cc(=O)[nH]2)c1 [Example 22, 2-[4-(morpholin-4-yl)-6-oxo-1,6-dihydropyrimidin-2-yl]-N-[3-(propan-2-yl)phenyl]acetamide] | 350
16 | Cc1cccc(NC(=O)Cc2nc(N3CCOCC3)cc(=O)[nH]2)c1 [Example 23, N-(3-methylphenyl)-2-[4-(morpholin-4-yl)-6-oxo-1,6-dihydropyrimidin-2-yl]acetamide] | 39
17 | N#Cc1cccc(NC(=O)Cc2nc(N3CCOCC3)cc(=O)[nH]2)c1 [Example 26, N-(3-cyanophenyl)-2-[4-(morpholin-4-yl)-6-oxo-1,6-dihydropyrimidin-2-yl]acetamide] | 2290
18 | Cc1cc(NC(=O)Cc2nc(N3CCOCC3)cc(=O)[nH]2)ccc1F [Example 28, N-(4-fluoro-3-methylphenyl)-2-[4-(morpholin-4-yl)-6-oxo-1,6-dihydropyrimidin-2-yl]acetamide] | 171

tested on: AKT protein phosphorylated on serine 473 (P-AKT-S473); assay: Study of pAKT expression in PC3 human prostate carcinoma cells measured by the MSD Multi-spot Biomarker Detection technique (Test B); assay type: cell-based; conditions: PC-3, inhibition of AKT phosphorylation (P-AKT-S473), MSD sandwich immunoassay, 1 to 2 h incubation, absolute IC50, mean of 2 experiments
Description: as §1
Study of pAKT Expression in PC3 Human Prostate Carcinoma Cells Measured by the MSD Multi-Spot Biomarker Detection Technique from Meso Scale Discovery (Test B):
The primary antibody specific for P-AKT-S473 (Kit #K151CAD) is coated on to an electrode in each well of the 96-well plates of the MSD, kit: after the addition of a protein lysate to each well, the signal is visualised by adding a secondary detection antibody labelled with an electrochemoluminescent compound. The procedure followed is that described in the kit.
as §2, with “h” for “hours”, “5% of” for “5%”, “20-times” for “10-times”
After this incubation, the cells are lysed for the preparation of the proteins. […] At this stage, the plates containing the lysates can be stored at −20° C. or at −80° C.
The wells of the 96-well plates of the MSD kit are saturated for 1 h at ambient temperature with the blocking solution of the MSD kit. Four washes are carried out with 150 μl of Tris Wash Buffer of the MSD kit. The lysates previously prepared are transferred into the 96-well multi-spot plates of the MSD kit and incubated for 1 h at ambient temperature, with shaking. Four washes are carried out with 150 μl of Tris Wash Buffer of the MSD kit. 25 μl of the MSD sulfo-tag detection antibody solution are added to the wells and incubated for 1 h at ambient temperature, with shaking. Four washes are carried out with 150 μl of Tris Wash Buffer of the MSD kit. 150 μl of Read Buffer of the MSD kit are added to the wells and the plates are read immediately on the S12400 instrument from Meso Scale Discovery.
The instrument measures a signal for each well. Wells without cells and containing the lysis buffer serve to determine the background noise that will be subtracted from all the measurements (min). The wells containing cells in the absence of product and in the presence of 0.1% DMSO are considered to be the 100% signal (max). The percentage inhibition is calculated for each concentration of test product according to the following formula: (1-((test-min)(max-min)))×100.
2 independent experiments make it possible to calculate the mean of the IC50 values.

Row | SMILES | IC50 [nM]
19 | O=C(Cc1nc(N2CCOCC2)cc(=O)[nH]1)N1CCOc2c(Cl)cccc21 [Example 149, 2-[2-(8-chloro-2,3-dihydro-4H-1,4-benzoxazin-4-yl)-2-oxoethyl]-6-(morpholin-4-yl)pyrimidin-4(3H)-one] | 43
20 | Cc1cccc(NC(=O)Cc2nc(N3CCOCC3)cc(=O)[nH]2)c1O [Example 150, N-(2-hydroxy-3-methylphenyl)-2-[4-(morpholin-4-yl)-6-oxo-1,6-dihydropyrimidin-2-yl]acetamide] | 189
21 | O=C(Cc1nc(N2CCOCC2)cc(=O)[nH]1)Nc1cccc([N+](=O)[O-])c1O [Example 151, N-(2-hydroxy-3-nitrophenyl)-2-[4-(morpholin-4-yl)-6-oxo-1,6-dihydropyrimidin-2-yl]acetamide] | 29
22 | N#Cc1cccc(NC(=O)Cc2nc(N3CCOCC3)cc(=O)[nH]2)c1O [Example 152, N-(3-cyano-2-hydroxyphenyl)-2-[4-(morpholin-4-yl)-6-oxo-1,6-dihydropyrimidin-2-yl]acetamide] | 938
23 | O=C(Cc1nc(N2CCOCC2)cc(=O)[nH]1)Nc1cccc(C(F)(F)F)c1O [Example 153, N-[2-hydroxy-3-(trifluoromethyl)phenyl]-2-[4-(morpholin-4-yl)-6-oxo-1,6-dihydropyrimidin-2-yl]acetamide] | 49
24 | CC1(C)CN(C(=O)Cc2nc(N3CCOCC3)cc(=O)[nH]2)c2ccccc21 [Example 154, 2-[2-(3,3-dimethyl-2,3-dihydro-1H-indol-1-yl)-2-oxoethyl]-6-(morpholin-4-yl)pyrimidin-4(3H)-one] | 28

Source: patent publication US8993565B2, “(6-oxo-1,6-dihydropyrimidin-2-yl)amide derivatives, preparation thereof and pharmaceutical use thereof as AKT(PKB) phosphorylation inhibitors” (Sanofi, priority 2009, dated 2015)
